Assay results reported in patent publication US10123960B2, “Methods for treating of skin conditions with retinoid double conjugate compounds” (US COSMECEUTECHS LLC, priority 2013, dated 2018).
“Also recorded” adds a separate entry of the source.

System: upper outer arm or back of each subject
Experiment: Maximization assay (human patch test: induction, rest and challenge phases)
Assay type: in vivo
Design: key to Maximization Testing Results: 72-Hour Grading / Maximization Testing Results: 48-Hour Grading: 0=not sensitized; 1=mild sensitization (viz. erythema and a little edema); 2=moderate sensitization (erythema with infiltration, raised, spreading beyond the borders of the patch, with or without vesiculation); 3=strong sensitization (large vesicula-bullous reaction)
Conditions: for Maximization Testing Results: 48-Hour Grading: 48 hours after challenge patch; for Maximization Testing Results: 72-Hour Grading: 72 hours after challenge patch
Procedure: A group of 26 subjects were tested to compare the activity of lactic acid retinoate (single conjugate) with ethyl lactate retinoate (double conjugate). As a general protocol, a patch (Webril cotton with 0.05 ml of a 5.0% aqueous solution) was applied to the upper outer arm or back of each subject. The entire test was composed of (1) an induction phase (2) a rest phase and (3) a challenge phase.
The scoring scale was as follows: • 0=not sensitized; • 1=mild sensitization (viz. erythema and a little edema); • 2=moderate sensitization (erythema with infiltration, raised, spreading beyond the borders of the patch, with or without vesiculation); and • 3=strong sensitization (large vesicula-bullous reaction).

[1] = Subject Number 26 (one volunteer)

Structure (SMILES): CCOC(=O)[C@@H](C)OC(=O)/C=C(C)/C=C/C=C(C)/C=C/C1=C(C)CCCC1(C)C [ethyl lactate retinoate]
- share of the sample population with any skin irritation or allergic reactions (26 subjects): 0%
- instances of contact allergy (48 or 72 hours after application of the challenge patches): No instances of contact allergy were recorded
- Maximization Testing Results: 48-Hour Grading (Subject Number 01-26): Subject Number: 01-26, 48-Hour Grading: 0
- Maximization Testing Results: 72-Hour Grading (Subject Number 01-26): Subject Number: 01-26, 72-Hour Grading: 0

Structure (SMILES): CC1=C(/C=C/C(C)=C/C=C/C(C)=C/C(=O)OC(C)C(=O)O)C(C)(C)CCC1 (centres unmarked) [lactyl retinoate, 2-(((2E,4E,6E,8E)-3,7-dimethyl-9-(2,6,6-trimethylcyclohex-1-en-1-yl)nona-2,4,6,8-tetraenoyl)oxy)propanoic acid]
- share of the sample population with a delayed skin irritation reaction presumptive of contact allergy (25 panelists completed): 4%
- Maximization Testing Results: 48-Hour Grading (Subject Number 01-24): Subject Number: 01-24, 48-Hour Grading: 0
- Maximization Testing Results: 72-Hour Grading (Subject Number 01-24): Subject Number: 01-24, 72-Hour Grading: 0
- Maximization Testing Results: 48-Hour Grading [1]: Subject Number: 26, 48-Hour Grading: 1
- Maximization Testing Results: 72-Hour Grading [1]: persisted at 72 hours (score 2); also recorded: Subject Number: 26, 72-Hour Grading: 2
- adverse or unexpected reactions in the panelists (induction phase): No adverse or unexpected reactions were
- skin irritation at the induction patch (leading to method deviation) (induction phase): many subjects had skin irritation sufficient enough to change protocol application
